Consider 3 molecules from patent publication US8921424B2, “Histone deacetylase inhibitors, process for preparation and uses thereof” (Zhejiang Hisun Pharmaceutical Co. Ltd., priority 2007, dated 2014).

A word on the GI50: it is the concentration giving 50% growth inhibition. The low end stands for more potent growth inhibition, the high end for less potent growth inhibition. By half-life is commonly meant the time needed for the level to fall by half in the phase considered. A lower half-life goes with fast loss.

One data set deals with Colo205. The data set can be described thus: Cell-based proliferation assay (SRB), Colo205. To be noted: Homo sapiens. On the procedure: (§1) Cell-Based Proliferation Assay for Determination of GI50 Values
(§2) A rapid multiwell plate assay using Sulforhodamine B (SRB) protein stain was adopted to evaluate the growth inhibitory effects of the compounds of the present invention. The screening panel of cancer cell lines includes Colo205 and HCT116 colon cancer cells, MDA-MB231 and MDA-MB435 chest cancer cells, A549 lung cancer cells, and Chinese hamster ovary cell line CHO, which were obtained from ATCC.
(§3) The cell line Colo205 is grown in RPMI 1640 medium containing 2 mM L-glutamine, 5% fetal bovine serum, and 1.0 mM sodium pyruvic acid. Cell lines A549 and MDA-MB231 are grown in RPMI 1640 medium containing 2 mM L-glutamine and 5% fetal bovine serum. The cell line MDA-MB435 is grown in DMEM medium containing 2 mM L-glutamine and 5% fetal bovine serum. The cell lines HCT 116 is grown in IMEM medium containing 2 mM L-glutamine and 5% fetal bovine serum. The CHO cell line, used as a normal control on toxicity, is grown in a special medium for cell line. For a typical screening experiment, A549 and Colo205 cells are inoculated into 96-well microtiter plates, with 100 μL per well, and 2000 and 5000 cells per well respectively for either cell line. MDA-MB435, HCT116, MDA-MB231 and CHO cells are also inoculated into 96-well microtiter plates, with 6000 cells per well. After cell inoculation, the microtiter plates are incubated at 37° C., 5% CO2, and 100% relative humidity for 24 hr in order to make cells adhere to well wall.
(§4) After 24 h incubation or time zero for drug addition, with each cell line 50 μl of cold 50% (w/v) TCA is added to wells used for control to fix cells in situ. Also at time zero, cells in other wells are treated with 100 μl of compound of different concentrations for 24 hr, 48 hr, and 72 hr respectively, with varying final compound concentration (0.1 μM, 1 μM, 5 μM 10 μM). For each treatment duration at each compound concentration, there are triplicate wells, as well as an array of control wells including a blank control well (cell culture medium only, no cells), a no-compound control well (adding same volume of cell culture medium but no compound), a positive control well (treated with Suberoylanilide hydroxamic acid (SAHA)), and normal cell well control (CHO cells). Following the addition of compounds, cell plates are incubated for 24 h, 48 h or 72 h per treatment group at 37° C., 5% CO2, and 100% relative humidity. The Treatment is then terminated by addition of cold TCA and incubation of 1 hr at 4° C. The supernatant is discarded, and all wells are washed five times with de-ioned water and air dried. Then each well is added with 100 μl sulforhodamine B (SRB) solution (0.4% (w/v) made in 1% acetic acid) and cell plates are incubated for 20-30 minutes at room temperature. After staining, unbound dye is removed by washing five times with 1% acetic acid and the plates are air dried. Bound stain is subsequently solubilized with 10 mM (200 μL) Tris base with the help of 5 min platform vibration or pipetting up and down, and the absorbance is read on an automated plate reader (M5 detection system, MD Group Ltd.) at a wavelength of 565 nm (calibrated zero reading of blank control at wavelength of 690 nm). The analytical software, XL-fit has been used to generate GI50 from a series of data thus obtained.

The next data set concerns HL-60. Kind of data set: Xenograft model, HL-60. To be noted: i.p. It counts as in vivo, mouse.
Data set [1] in a line: Microsomal stability and clearance. To be noted: microsomal stability; Table 4. It counts as in vitro ADME, human, mouse. On the procedure:
Measure of Microsomal Stability and Clearance with Compounds of this Invention
Verapamil (positive control) and compound solution, both at 10 mM, are diluted 200 fold. There are six reaction time points in the experiment (0 min, 5 min, 15 min, 30 min, 45 min, and 60 min), and triplicate samples are used for each data point. There are controls for time zero and negative drug effect (negative control containing no incubation buffer or enzyme). For each compound or Verapamil sample, there are also samples treated with compound or Verapamil at concentrations of no positive effect (at 5 μM and 2.5 μM, respectively). Diluted positive control (Verapamil) and compound solution are mixed with pre-heated (37° C.) incubation buffer (100 mM potassium phosphate buffer, NADPH regeneration system solution B, NAPDH regeneration system solution A, HLM/MLM in Milli-Q ultrapure water), and incubated at 37° C. for 10 min. 100 μL of stop solution mixture is (containing 80% acetonitrile, and 20% DMSO, both of HPLC grade) is dispensed into wells of separate sampling plates into each well. At each reaction time point (0 min, 5 min, 15 min, 30 min, 45 min, and 60 min) 50 μL of reaction solution is taken from wells in the incubation plate and transferred to its corresponding well in the sampling plate, and mixed by pipetting up and down with stop solution already added there. The sampling plates are then covered, placed on ice, and centrifuged at 2,000 rpm at 4° C. for 15 min. 100 μL supernatant is then taken from each well to LC/MS analysis (or stored at 4° C. in refrigerator until analysis).
Data analysis: % remaining of compound is calculated by area of each time point with respect to time 0% remaining against time (min) curve is plotted using the first-phase exponential decay equation y=y0e(−kT) on the Prism 4.0. Results are shown in the format of TOP, K, t1/2 (min), R2 value and % remaining against time curve.

A further data set deals with MDAMB435. Kind of data set: Cell-based proliferation assay (SRB), MDAMB435. To be noted: Homo sapiens. On the procedure:
as §1, §2, §3, §4

For the next data set, the system named is SKOV-3. Kind of data set: Cell-based proliferation assay (SRB), SKOV-3. To be noted: Homo sapiens. On the procedure:
as §1, §2, §3, §4

Consider `O=C(CCCCCCC(=O)Nc1ccccc1)NO` [SAHA, suberoylanilide hydroxamic acid, reference compound], for which the GI50 came out at 3.15 µM in the data set with Colo205 (COLO 205, Table 3); 4.1 µM in the data set on MDAMB435 (MDA-MB-435, Table 3); 3.56 µM with SKOV-3 (SK-OV-3, Table 3). The “T/C(%) HL-60” value in the data set on HL-60 (80 mg/kg, 10 days) is on record as 45% (80,10). Moreover, in data set [1], the half-life is 96 min.

As for `CCCCc1nc2cc(/C=C/C(=O)NO)ccc2n1CCN(CC)CC` [SB939, reference compound], the GI50 in the data set on Colo205 (COLO 205, Table 3) is 2.41 µM; with Colo205 (COLO 205, Table 4) it was 2.41 µM; with MDAMB435 (MDA-MB-435, Table 3), 2.65 µM; in the data set with MDAMB435 (MDA-MB-435, Table 4) it was 2.65 µM; with SKOV-3 (SK-OV-3, Table 3) it was 5.25 µM; with SKOV-3 (SK-OV-3, Table 4), 5.25 µM. Moreover, the “T/C(%) HL-60” value in the data set on HL-60 (30 mg/kg, 10 days) is given as 51% (30,10). This molecule showed a half-life in data set [1] of 114 min.

With `CCCCCNc1cc(/C=C/C(=O)NO)ccc1SCCN(CC)CC` [Example 2, 3-(4-(2-(diethylamino)ethylthio)-3-(pentylamino)phenyl)-N-hydroxy-acrylamide], the 50% growth inhibitory concentration (GI50) amounted to 4.23 µM with Colo205 (COLO 205, Table 3); 4.23 µM in the data set on Colo205 (COLO 205, Table 4); 3.1 µM in the data set with MDAMB435 (MDA-MB-435, Table 3); 3.1 µM in the data set with MDAMB435 (MDA-MB-435, Table 4); 5.46 µM in the data set on SKOV-3 (SK-OV-3, Table 3); 5.46 µM with SKOV-3 (SK-OV-3, Table 4). In addition, the “T/C(%) HL-60” value in the data set on HL-60 (200 mg/kg, 15 days) is on record as 40% (200,15). In data set [1], this molecule showed a half-life of 108 min.
